Reference: US12612392B2, “Compound, pharmaceutical compositions containing same, synthesis method therefor and use thereof” (SHENZHEN ZHONGGE BIOLOGICAL TECHNOLOGY CO., LTD., priority 2022, dated 2026)

Tests used:
[1] = system: HEK293T/17-ATF4 uORF-Luc-Puro monoclonal cells; assay: Cell activity test: ATF4 luciferase reporter, thapsigargin-induced stress; format: cell-based; conditions: Homo sapiens, HEK-293T; ATF4 reporter expression, 50 nM thapsigargin, 6 hours
Excerpt: The ATF4 luciferase reporter plasmid consists of two parts, i.e., the 5′ untranslated region sequence of the ATF4 gene and the luciferase coding sequence. Specifically, the ATF4 5′ untranslated region sequence (NCBI database number BC022088.2) containing two upstream open reading frames (uORFs), and the firefly luciferase encoding gene were cloned into the pLVX-Puro vector (YouBio, VT1465). The lentivirus packaging plasmids were psPAX2 (YouBio, VT1444) and pMD2.G (YouBio, VT1443). HEK293T/17 cells were transfected with the above three plasmids simultaneously using X-tremeGENE 9 DNA transfection reagent, and after 48 hours, a culture medium containing lentivirus was collected. HEK293T/17 cells transduced with the virus were screened with 1 μg/mL puromycin, and then monoclonal cells were obtained by limiting dilution.
By using this cell line and the cold fluorescence readings, the translational regulation of ATF4 can be detected, and the activity of the eIF2B activator can be tested. The specific experimental process is as follows: 6000 HEK293T/17-ATF4 uORF-Luc-Puro monoclonal cells were plated in a 384-well plate and allowed to adhere overnight. The test compounds were dissolved in DMSO and added together with 50 nM thapsigargin to the cell culture medium and incubated for 6 hours, wherein the thapsigargin was used to cause cellular stress and upregulate the protein translation of ATF4. Six hours after the addition, the cells were lysed using the One-Glo Luciferase Assay Kit (Promega #E6120), and then the cold fluorescence values were read using the LUM program of the EnVision 2104 plate reader.
The ATF4 reporter expression % was calculated as follows:
[formula] • ave_vc: average signal value of negative control • ave_pc: average signal value of positive control • ave_sample: average signal value of sample
The dose-response curves were fitted, and the EC50 values were calculated.
The nonlinear regression log (inhibitor) vs. response—variable slope (four parameters) method of GraphPad 9 software was used to fit the corresponding relationship between the ATF4 reporter expression % and the compound concentration.
X-axis: log value of compound concentration; Y-axis: ATF4 reporter expression %; Top: evaluation of upper asymptote of curve; Bottom: evaluation of lower asymptote of curve; Hillslope: slope of the fitted curve.

CYP3A4 = biological target: T1, CYP3A4 (Homo sapiens, UniProt P08684); assay: P450 enzyme inhibition, CYP3A4; format: in vitro ADME; conditions: human liver microsome, substrate Testosterone
T1 construct: A phosphate buffer solution of liver microsomes was prepared; from tissue; host or cells: human liver microsomes
T1 sequence (P08684 whole entry): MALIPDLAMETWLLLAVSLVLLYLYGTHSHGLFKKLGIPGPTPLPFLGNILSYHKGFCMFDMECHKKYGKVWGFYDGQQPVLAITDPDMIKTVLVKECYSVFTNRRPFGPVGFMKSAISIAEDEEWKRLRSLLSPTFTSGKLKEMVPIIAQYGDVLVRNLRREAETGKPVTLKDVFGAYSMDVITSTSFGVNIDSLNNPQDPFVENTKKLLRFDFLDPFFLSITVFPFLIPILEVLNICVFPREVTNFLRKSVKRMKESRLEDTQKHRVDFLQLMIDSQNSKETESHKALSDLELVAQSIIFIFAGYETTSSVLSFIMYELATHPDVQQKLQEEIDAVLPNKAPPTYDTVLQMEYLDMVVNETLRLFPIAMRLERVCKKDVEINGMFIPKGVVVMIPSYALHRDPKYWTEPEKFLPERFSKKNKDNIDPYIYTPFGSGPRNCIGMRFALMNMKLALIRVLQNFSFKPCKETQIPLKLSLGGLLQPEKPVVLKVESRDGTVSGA
Procedure: (§1) A phosphate buffer solution of liver microsomes was prepared. 169 μL of the phosphate buffer solution of liver microsomes and 1 μL of working solutions of various concentrations of test compounds or positive control compounds were added to a 96-well plate. The culture plate was placed in a water bath and pre-heated at 37° C. for 15 minutes. After the incubation, 10 μL of substrates were added to the culture plate (1 μL of substrates and 9 μL of the K-Mg buffer solution were added to the plate for CYP3A4-T). The incubation mixture was mixed on a rotating mixer for 10 seconds, and then 20 μL of a 10 mM NADPH solution was added to start the reaction at a final concentration of 1 mM. The experiment was repeated twice. At the predetermined time points listed in Table 4, the reaction was quenched by adding 400 μL of the quenching solution (cold ACN containing 500 nM mephetedrine and 10 nM terfenadine). Centrifugation was performed at 3220 g for 50 minutes at 4° C. 100 μl of the supernatant was transferred to a new plate. The supernatant was diluted with 100 μL of pure water. The mixture was mixed evenly, and the sample was analyzed by UPLC-MS/MS.

CYP2D6 = biological target: T2, CYP2D6 (Homo sapiens, UniProt P10635); assay: P450 enzyme inhibition, CYP2D6; format: in vitro ADME; conditions: human liver microsome, substrate Dextromethorphan
T2 construct: A phosphate buffer solution of liver microsomes was prepared; from tissue; host or cells: human liver microsomes
T2 sequence (P10635 whole entry): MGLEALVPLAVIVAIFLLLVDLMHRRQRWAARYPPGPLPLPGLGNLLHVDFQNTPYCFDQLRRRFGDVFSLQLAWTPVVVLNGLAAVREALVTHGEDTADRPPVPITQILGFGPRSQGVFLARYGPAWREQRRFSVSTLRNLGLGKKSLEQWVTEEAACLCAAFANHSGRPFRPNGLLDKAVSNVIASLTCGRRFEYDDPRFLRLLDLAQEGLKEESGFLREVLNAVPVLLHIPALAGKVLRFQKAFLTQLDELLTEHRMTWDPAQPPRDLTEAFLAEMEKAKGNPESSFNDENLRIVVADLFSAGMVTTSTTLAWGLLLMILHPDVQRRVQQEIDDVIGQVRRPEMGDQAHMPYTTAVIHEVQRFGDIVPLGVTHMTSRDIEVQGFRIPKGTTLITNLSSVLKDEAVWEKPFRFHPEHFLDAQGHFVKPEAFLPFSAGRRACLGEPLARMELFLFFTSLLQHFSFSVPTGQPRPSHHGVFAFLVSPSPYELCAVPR
Procedure: as §1

[2] = In vitro liver microsome stability; format: in vitro ADME; conditions: liver microsomes, NADPH, 37° C.
Procedure: A 5 mM MgCl2 100 mM K-Mg buffer solution was pre-heated. 5 μL of a 10 mM compound and a reference stock solution were added to 95 μL of acetonitrile (ACN) to prepare a spiked solution. 1.5 μL of a 500 µM spiked solution and 18.75 μL of 20 mg/mL liver microsomes were added to 479.8 μL of the K-Mg buffer solution. NADPH was dissolved in the K-Mg-buffer solution to prepare an NADPH stock solution ([…]). At different time points (0, 5, 15, 30 and 45 minutes), 30 μL of a 1.5 μM spiked solution containing the microsomes was evenly dropped into an assay plate. The plate was preincubated at 37° C. for 5 minutes. At 0 min, 200 μL of ACN containing IS (internal standard, tolbutamid/terfenadine) was added to the wells, and then 15 μl of the NADPH stock solution (6 mM) was added. For other time points, 15 μL of the NADPH stock solution (6 mM) was added to the wells to initiate the reaction and start the timing. At 5, 15, 30 and 45 min, the reaction was stopped by adding 200 μL of ACN containing IS to the corresponding wells of the plate. After quenching, the plate was shaken at 600 rpm for 10 minutes and then centrifuged at 4000 rpm for 50 minutes. 80 μL of the supernatant from each well was transferred to a 96-well sample plate containing 160 μL of pure water for UPLC/MS/MS analysis.

[3] = Cell membrane permeability (A to B / B to A, efflux ratio); format: in vitro ADME
Procedure: The test compounds were diluted from 10 mM stock solutions to a concentration of 10 μM using the transport buffer (HBSS+BSA) and applied to the apical or basolateral side of the cell monolayer. After the incubation at 37° C., 5% CO2 and 95% relative humidity for 120 minutes, the permeability of the test compounds in the A to B direction or the B to A direction was tested in duplicate. In addition, the efflux ratio of each compound was determined. The test substances and reference substances were quantitatively analyzed by the LC-MS/MS method based on the analyte/IS peak area ratio.

[4] = Pharmacokinetic evaluation in mice; format: in vivo
Procedure: The test compounds were dissolved in vehicles to prepare clear solutions or homogeneous suspensions. […] Blood samples were collected at 0.083 h, 0.25 h, 0.5 h, 1 h, 2 h, 4 h, 8 h, and 24 h after the intravenous administration, and at 0.25 h, 0.5 h, 1 h, 2 h, 4 h, 6 h, 8 h, and 24 h after the oral administration. Plasma samples were centrifuged, and the supernatant was collected to prepare samples, which were then quantitatively analyzed by LC/MS/MS.

**Q.** Which EC50 [1] does the source give for O=C(COc1ccc(Cl)c(F)c1)N[C@H]1CC[C@H](c2nnc(N3CC(OC(F)(F)F)C3)o2)CC1 [Compound 6] here?
**A.** < 0.001 µM

**Q.** And the IC50 (CYP3A4)?
**A.** > 30 µM

**Q.** What about the IC50 (CYP2D6) of the same compound?
**A.** > 30 µM

**Q.** What about the half-life at 1 µM [2] of the same compound?
**A.** > 1.5 h

**Q.** What about the efflux ratio at 120 min, 10 µM [3] of the same compound?
**A.** 0.71

**Q.** What about the Papp A→B at 120 min, 10 µM ([3]; 37° C.) of the same compound?
**A.** 25.8 ×10⁻⁶ cm/s

**Q.** And the Papp B→A at 120 min, 10 µM ([3]; 37° C.)?
**A.** 18.4 ×10⁻⁶ cm/s

**Q.** What about the “pharmacokinetic properties in mice” value ([4]; Cl, T1/2, Cmax, AUC, F) of the same compound?
**A.** excellent pharmacokinetic properties in mice

**Q.** What about the AUC(0-inf) ([4]; plasma, mouse IV (1 mg/kg)) of the same compound?
**A.** 11.4 µg·h/mL

**Q.** And the C0 ([4]; plasma, mouse IV (1 mg/kg))?
**A.** 1240 ng/mL

**Q.** And the clearance ([4]; plasma, mouse IV (1 mg/kg))?
**A.** 1.46 mL/min/kg

**Q.** What about the half-life ([4]; plasma, mouse IV (1 mg/kg)) of the same compound?
**A.** 6.35 h

**Q.** What about the Vd ([4]; plasma, mouse IV (1 mg/kg), read-out: Vss) of the same compound?
**A.** 0.707 L/kg

**Q.** And the AUC(0-inf) ([4]; plasma, mouse PO (30 mg/kg))?
**A.** 516 µg·h/mL

**Q.** What about the Cmax ([4]; plasma, mouse PO (30 mg/kg)) of the same compound?
**A.** 48000 ng/mL

**Q.** And the Tmax ([4]; plasma, mouse PO (30 mg/kg))?
**A.** 3.33 h

**Q.** And the half-life ([4]; plasma, mouse PO (30 mg/kg))?
**A.** 3.11 h

**Q.** And the bioavailability ([4]; plasma, mouse PO (30 mg/kg) vs IV (1 mg/kg))?
**A.** 161%
